{"source": "paper PMC8467567", "about": "“Selective Targeting of Human and Animal Pathogens of the Helicobacter Genus by Flavodoxin Inhibitors: Efficacy, Synergy, Resistance and Mechanistic Studies” (International Journal of Molecular Sciences, 2021)", "key": {"[1]": {"molecular_target": "T1, Hp-Fld (H. pylori flavodoxin) (Helicobacter pylori, UniProt O25776)", "T1 construct": "gene fldA; recombinant from pET28a-fldA in E. coli BL21 (DE3); DEAE purification, no tag mentioned; FMN added during lysis, transformed into holoprotein if needed", "T1 sequence (O25776 1-164)": "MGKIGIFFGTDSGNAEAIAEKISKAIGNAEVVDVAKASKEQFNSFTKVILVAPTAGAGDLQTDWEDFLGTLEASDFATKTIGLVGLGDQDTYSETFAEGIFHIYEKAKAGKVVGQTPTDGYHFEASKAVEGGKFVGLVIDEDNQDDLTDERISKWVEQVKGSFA", "experiment": "biochemical", "set-up": "isothermal titration calorimetry of compounds binding to recombinant wild-type Hp-Fld, pH 9", "description": "Isothermal titration calorimetry (ITC) experiments were carried out in an Auto-iTC200 calorimeter (MicroCal, Malvern-Panalytical, Malvern, UK) in order to characterise the affinity of the wild-type Hp-Fld protein and the different mutants N14A, A55W, V113W, Q115W, T116W, K133A and D142Y for the different compounds. Recombinant Hp-Fld at 10–20 µM concentration in 50 mM EPPS buffer, pH 9 (for IV, IV-a, IV-b, IV-c, rac-IV-j, rac-IV-k and rac-IV-l), or in 50 mM Tris-HCl buffer, pH 9 (for IV-d) was titrated with 120–300 µM ligand solutions in the same buffer, prepared from stock compound solutions in 100% DMSO. At the residual DMSO concentration of 2.5% employed in the working solutions, wild-type flavodoxin has been described to be conformationally stable and biochemically active. Thermodynamic parameters of the binding equilibrium were calculated by non-linear least-squares regression analysis considering a single ligand binding site and using the user-defined fitting routines in the MicroCal LLC ITC module from the Origin 7.0 software (Northampton, MA, USA). Interaction between wild-type Hp-Fld and compounds IV, IV-a, IV-b, IV-c, IV-d, rac-IV-j, rac-IV-k and rac-IV-l was evaluated by ITC (Figure S3 and Table S1)."}, "[2]": {"molecular_target": "T2, Hp-Fld (H. pylori flavodoxin) (Helicobacter pylori, UniProt O25776, N14A)", "T2 construct": "gene fldA", "experiment": "biochemical", "excerpt": "(§1) isothermal titration calorimetry on Hp-Fld (H. pylori flavodoxin)"}, "[3]": {"molecular_target": "T3, Hp-Fld (H. pylori flavodoxin) (Helicobacter pylori, UniProt O25776, V113W)", "T3 construct": "gene fldA", "experiment": "biochemical", "excerpt": "as §1"}, "[4]": {"molecular_target": "T4, Hp-Fld (H. pylori flavodoxin) (Helicobacter pylori, UniProt O25776, A55W)", "T4 construct": "gene fldA", "experiment": "biochemical", "excerpt": "as §1"}, "[5]": {"molecular_target": "T5, Hp-Fld (H. pylori flavodoxin) (Helicobacter pylori, UniProt O25776, D142Y)", "T5 construct": "gene fldA", "experiment": "biochemical", "excerpt": "as §1"}, "[6]": {"molecular_target": "T6, Hp-Fld (H. pylori flavodoxin) (Helicobacter pylori, UniProt O25776, T116W)", "T6 construct": "gene fldA", "experiment": "biochemical", "excerpt": "as §1"}, "[7]": {"molecular_target": "T1, Hp-Fld (H. pylori flavodoxin)", "experiment": "isothermal titration calorimetry", "format": "binding"}}, "data": [{"compound": "O=[N+]([O-])c1ccc(SCc2ccc(OCC(O)CO)cc2)c2nonc12", "note": "(racemic) [rac-IV-j, rac-3-(4-(((7-Nitrobenzo[c][1,2,5]oxadiazol-4-yl)thio)methyl)phenoxy)propane-1,2-diol]", "values": [{"measurement": "Kd", "setting": "[1]", "value": 2.33, "unit": "µM"}]}, {"compound": "Nc1ccc([S+]([O-])Cc2ccc(OCC(O)CO)cc2)c2nonc12", "note": "(racemic) [rac-IV-l, rac-3-(4-(((7-Aminobenzo[c][1,2,5]oxadiazol-4-yl)sulfinyl)methyl)phenoxy)propane-1,2-diol]", "values": [{"measurement": "Kd", "setting": "[1]", "value": 1.65, "unit": "µM"}]}, {"compound": "COc1ccc(CSc2cc(Cl)c(N)c3nonc23)cc1", "note": "[IV-c]", "values": [{"measurement": "Kd", "setting": "[2]", "value": 1.76, "unit": "µM"}, {"measurement": "Kd", "setting": "[3]", "value": 1.45, "unit": "µM"}, {"measurement": "Kd", "setting": "[4]", "value": 1.05, "unit": "µM"}, {"measurement": "Kd", "setting": "[5]", "value": 0.44, "unit": "µM"}, {"measurement": "Kd", "setting": "[6]", "value": 1.43, "unit": "µM"}, {"measurement": "Kd", "setting": "[7]; read-out: IV-c / Kd^b", "value": 0.67, "unit": "µM"}]}, {"compound": "Nc1ccc(SCc2ccc(OCC(O)CO)cc2)c2nonc12", "note": "(racemic) [rac-IV-k, rac-3-(4-(((7-Aminobenzo[c][1,2,5]oxadiazol-4-yl)thio)methyl)phenoxy)propane-1,2-diol]", "values": [{"measurement": "Kd", "setting": "[1]", "value": 3.36, "unit": "µM"}]}, {"compound": "COc1ccc(C[S+]([O-])c2ccc(N)c3nonc23)cc1", "note": "(stereo not drawn) [IV-d]", "values": [{"measurement": "Kd", "setting": "[1]", "value": 1.55, "unit": "µM"}]}, {"compound": "COc1ccc(C2(C)SCc3cc(C)c(C)cc3CS2)cc1", "note": "[IV-b]", "values": [{"measurement": "Kd", "setting": "[1]", "value": 0.91, "unit": "µM"}]}, {"compound": "COc1ccc(CSc2ccc([N+](=O)[O-])c3nonc23)cc1", "note": "[IV]", "values": [{"measurement": "Kd", "setting": "[2]", "value": 0.45, "unit": "µM"}, {"measurement": "Kd", "setting": "[3]", "value": 0.5, "unit": "µM"}, {"measurement": "Kd", "setting": "[4]", "value": 2.33, "unit": "µM"}, {"measurement": "Kd", "setting": "[5]", "value": 1.18, "unit": "µM"}, {"measurement": "Kd", "setting": "[6]", "value": 1.1, "unit": "µM"}, {"measurement": "Kd", "setting": "[7]; read-out: IV / Kd^b", "value": 0.48, "unit": "µM"}]}, {"compound": "COc1ccc(CSc2ccc(N)c3nonc23)cc1", "note": "[IV-a]", "values": [{"measurement": "Kd", "setting": "[1]", "value": 5.26, "unit": "µM"}]}]}
